Test results from the NIST ThermoML archive (doi:10.1021/je800012v).

Test: xn = mol fraction of the nth substance listed
Details: Liquid

CCCCCl [1-chlorobutane] + CCCCCC
mass density [kg/m3]
Details | x1 = 0.1099 | x1 = 0.212 | x1 = 0.2925 | x1 = 0.316 | x1 = 0.405 | x1 = 0.4978 | x1 = 0.5975 | x1 = 0.6869 | x1 = 0.8294 | x1 = 0.9025
283.15 K, 100 kPa | 688.16 | 707.78 | 724.14 | 728.91 | 747.8 | 768.4 | 791.4 | 813.19 | 849.71 | 869.66
283.15 K, 2500 kPa | 690.51 | 710.17 | 726.49 | 731.23 | 750.19 | 770.77 | 793.76 | 815.54 | 852.04 | 871.97
283.15 K, 5000 kPa | 692.85 | 712.52 | 728.83 | 733.62 | 752.56 | 773.13 | 796.11 | 817.89 | 854.38 | 874.31
283.15 K, 10000 kPa | 697.27 | 716.94 | 733.31 | 738.08 | 757.05 | 777.64 | 800.62 | 822.39 | 858.86 | 878.8
283.15 K, 15000 kPa | 701.44 | 721.17 | 737.55 | 742.33 | 761.32 | 781.91 | 804.89 | 826.69 | 863.18 | 883.07
283.15 K, 20000 kPa | 705.42 | 725.18 | 741.57 | 746.36 | 765.38 | 785.99 | 808.98 | 830.8 | 867.28 | 887.19
283.15 K, 25000 kPa | 709.18 | 728.95 | 745.4 | 750.17 | 769.24 | 789.87 | 812.89 | 834.7 | 871.21 | 891.13
283.15 K, 30000 kPa | 712.77 | 732.59 | 749.06 | 753.86 | 772.94 | 793.59 | 816.62 | 838.47 | 875.01 | 894.92
283.15 K, 35000 kPa | 716.2 | 736.03 | 752.55 | 757.33 | 776.47 | 797.15 | 820.23 | 842.08 | 878.63 | 898.57
293.15 K, 100 kPa | 679 | 698.47 | 714.61 | 719.31 | 738.08 | 758.47 | 781.32 | 802.85 | 839.13 | 858.87
293.15 K, 2500 kPa | 681.5 | 701.01 | 717.13 | 721.84 | 740.6 | 761 | 783.84 | 805.38 | 841.63 | 861.35
293.15 K, 5000 kPa | 684.03 | 703.52 | 719.69 | 724.38 | 743.13 | 763.54 | 786.39 | 807.91 | 844.15 | 863.85
293.15 K, 10000 kPa | 688.77 | 708.3 | 724.48 | 729.18 | 747.97 | 768.33 | 791.18 | 812.71 | 848.93 | 868.63
293.15 K, 15000 kPa | 693.23 | 712.77 | 728.99 | 733.71 | 752.5 | 772.88 | 795.72 | 817.27 | 853.49 | 873.18
293.15 K, 20000 kPa | 697.41 | 717.01 | 733.23 | 737.99 | 756.78 | 777.19 | 800.04 | 821.6 | 857.83 | 877.51
293.15 K, 25000 kPa | 701.41 | 721.03 | 737.29 | 742.03 | 760.9 | 781.3 | 804.2 | 825.76 | 861.98 | 881.68
293.15 K, 30000 kPa | 705.17 | 724.84 | 741.13 | 745.88 | 764.76 | 785.2 | 808.12 | 829.7 | 865.95 | 885.66
293.15 K, 35000 kPa | 708.81 | 728.53 | 744.84 | 749.61 | 768.53 | 788.98 | 811.92 | 833.53 | 869.81 | 889.53
298.15 K, 100 kPa | 674.32 | 693.72 | 709.76 | 714.52 | 733.09 | 753.4 | 776.16 | 797.59 | 833.73 | 853.37
298.15 K, 2500 kPa | 676.93 | 696.34 | 712.38 | 717.11 | 735.72 | 756.03 | 778.78 | 800.23 | 836.3 | 855.94
298.15 K, 5000 kPa | 679.56 | 698.96 | 715.02 | 719.75 | 738.37 | 758.67 | 781.41 | 802.86 | 838.91 | 858.53
298.15 K, 10000 kPa | 684.48 | 703.92 | 719.98 | 724.72 | 743.38 | 763.66 | 786.38 | 807.84 | 843.87 | 863.49
298.15 K, 15000 kPa | 689.11 | 708.6 | 724.66 | 729.39 | 748.1 | 768.37 | 791.12 | 812.57 | 848.59 | 868.18
298.15 K, 20000 kPa | 693.45 | 712.95 | 729.06 | 733.8 | 752.52 | 772.82 | 795.57 | 817.04 | 853.07 | 872.66
298.15 K, 25000 kPa | 697.55 | 717.1 | 733.24 | 737.94 | 756.74 | 777.05 | 799.82 | 821.3 | 857.35 | 876.94
298.15 K, 30000 kPa | 701.45 | 721.06 | 737.22 | 741.91 | 760.75 | 781.09 | 803.9 | 825.39 | 861.46 | 881.06
298.15 K, 35000 kPa | 705.16 | 724.8 | 741 | 745.72 | 764.57 | 784.94 | 807.76 | 829.27 | 865.37 | 884.99
303.15 K, 100 kPa | 669.66 | 689.16 | 704.96 | 709.76 | 728.25 | 748.32 | 770.96 | 792.32 | 828.52 | 847.81
303.15 K, 2500 kPa | 672.37 | 691.9 | 707.69 | 712.51 | 730.98 | 751.02 | 773.66 | 795.01 | 831.2 | 850.48
303.15 K, 5000 kPa | 675.06 | 694.62 | 710.41 | 715.21 | 733.71 | 753.76 | 776.4 | 797.74 | 833.88 | 853.16
303.15 K, 10000 kPa | 680.26 | 699.79 | 715.6 | 720.44 | 738.89 | 759.01 | 781.67 | 802.98 | 839.08 | 858.38
303.15 K, 15000 kPa | 685.01 | 704.53 | 720.39 | 725.23 | 743.69 | – | – | – | – | –
